Reference: US7622598B2, “Phenol derivatives and antitrypanosoma preventive/therapeutic agent comprising the same as active ingredient” (aRigen Pharmaceuticals, Inc., priority 2003, dated 2009)
Where two headings read alike, the source gives them in different places.

Assays:
[1] = target: cyanide resistant quinol enzyme of Trypanosoma (Trypanosoma brucei brucei, UniProt Q26710); test: Respiration inhibition on the cyanide resistant quinol enzyme of Trypanosoma (recombinant enzyme); format: biochemical
Chain of cyanide resistant quinol enzyme of Trypanosoma (Q26710 whole entry): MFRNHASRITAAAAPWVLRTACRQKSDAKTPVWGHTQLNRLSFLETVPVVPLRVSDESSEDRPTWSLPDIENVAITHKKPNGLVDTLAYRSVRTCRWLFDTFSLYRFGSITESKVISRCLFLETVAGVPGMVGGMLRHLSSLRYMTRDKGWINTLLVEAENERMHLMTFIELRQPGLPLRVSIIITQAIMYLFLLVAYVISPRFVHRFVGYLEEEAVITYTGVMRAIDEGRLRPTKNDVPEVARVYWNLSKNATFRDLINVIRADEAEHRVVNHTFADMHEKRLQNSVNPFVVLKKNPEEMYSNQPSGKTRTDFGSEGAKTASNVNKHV
Source text: Antitrypanosoma Action (IC50)
The respiration inhibition effect of the novel phenol derivatives on the cyanide resistant quinol enzyme of Trypanosoma was examined with the use of a recombinant enzyme.

Trypanosma brucei brucei = test: Antitrypanosoma action in 24 h culture, minimum effective concentration, with or without glycerin; format: cell-based, Trypanosoma brucei brucei; conditions: for Minimum Effective Concentration, Presence of Glycerin: 5 mM of glycerin; for minimal effective concentration: Trypanosoma brucei, read-out: Minimum Effective Concentration, Absence of Glycerin
Protocol: With the use of a 96-well culture plate, each agent was adjusted to 10 mM with DMSO, and 5×10^5/ml of Trypanosma brucei brucei was added and cultured at 37° C. for 24 hours, and the minimum effective concentration was calculated.
The above described culture was conducted with the addition of 5 mM of glycerin under the same conditions as described above and observed.

[2] = system: glycerol-3-phosphate-dependent respiration in the mitochondrial specimen of Trypanosoma brucei brucei; conditions: earlier filing JP H09-165332; cited from earlier work
[3] = system: glycerol-3-phosphate-dependent respiration in the mitochondrial specimen of Trypanosoma brucei brucei; test: Inhibition of glycerol-3-phosphate-dependent respiration in mitochondrial specimen; format: biochemical; conditions: mitochondrial specimen from T. brucei brucei multiplied in rat bloodstream
Source text: The inhibition effect of the novel halogen-containing phenol derivatives having an alkyl side chain on the glycerol-3-phosphate-dependent respiration in the mitochondrial specimen prepared by mechanically crushing the bodies of Trypanosoma brucei brucei multiplied in the rat bloodstream with glass beads and subjecting the crushed bodies to centrifugal fractionation was examined.

[4] = 5×10^5/ml, 37° C., 24 hours, no glycerin

Row | SMILES | melting point | IC50 [1] | Minimum Effective Concentration, Presence of Glycerin (Trypanosma brucei brucei; 5×10^5/ml, 37° C., 24 hours) | minimal effective concentration (Trypanosma brucei brucei; [4]) | also measured
1 | CCCCCCCCCCCC(O)c1c(O)c(Cl)cc(C(=O)OC)c1O (centres unmarked) | 96 to 97 °C |  |  |  | 
2 | Cc1c(Cl)c(O)c(CCC(C)CCCC(C)[C@@H]2CC(=O)C(C)(C)O2)c(O)c1C=O (mixture of isomers) [compound 212, 3-Chloro-4,6-dihydroxy-2-methyl-5-[3-methyl-7-(tetrahydro-5,5-dimethyl-4-oxo-2-furanyl)octyl]-benzaldehyde] |  | 0.3 nM |  |  | 
3 | Cc1c(Cl)c(O)c(CCC(C)CCCC(C)C)c(O)c1C=O (racemic) [dl-218, 3-Chloro-5-(3,7-dimethyloctyl)-4,6-dihydroxy-2-methylbenzaldehyde] | 66 to 67 °C | 0.4 nM |  |  | 
4 | Cc1c(Cl)c(O)c(/C=C/C(C)CCCC(C)C)c(O)c1C=O (racemic) [dl-223, 3-Chloro-5-(3,7-dimethyl-1-octenyl)-4,6-dihydroxy-2-methylbenzaldehyde] |  | 1.1 nM |  |  | 
5 | CCCCCCCCC(O)c1c(O)cc(C)c(C=O)c1O (centres unmarked) [195-9, 2,4-Dihydroxy-3-(1-hydroxynonyl)-6-methylbenzaldehyde] |  | 30 nM | 25 µM | 25 µM | 
6 | CCCCCCCCCC(O)c1c(O)cc(C)c(C=O)c1O (centres unmarked) [195-10, 2,4-Dihydroxy-3-(1-hydroxydecyl)-6-methylbenzaldehyde] |  | 35 nM | 25 µM | 25 µM | 
7 | CCCCCCCCCCCC(O)c1c(O)cc(C)c(C=O)c1O (centres unmarked) [195-12, 2,4-Dihydroxy-3-(1-hydroxydodecyl)-6-methylbenzaldehyde] |  | 40 nM | 25 µM | 25 µM | 
8 | CCCCCCCCC(O)c1c(O)c(Cl)c(C)c(C=O)c1O (centres unmarked) [196-9, 5-Chloro-2,4-dihydroxy-3-(1-hydroxynonyl)-6-methylbenzaldehyde] |  | 0.5 nM | 0.8 µM | 50 µM | 
9 | CCCCCCCCCC(O)c1c(O)c(Cl)c(C)c(C=O)c1O (centres unmarked) [196-10, 5-Chloro-2,4-dihydroxy-3-(1-hydroxydecyl)-6-methylbenzaldehyde] |  | 0.6 nM | 0.8 µM | 100 µM | 
10 | CCCCCCCCCCCC(O)c1c(O)c(Cl)c(C)c(C=O)c1O (centres unmarked) [196-12, 5-Chloro-2,4-dihydroxy-3-(1-hydroxydodecyl)-6-methylbenzaldehyde] |  | 0.65 nM | 1.5 µM | 100 µM | 
11 | CCCCC/C=C/c1c(O)c(Cl)c(C)c(C=O)c1O [200-7, 5-Chloro-3-(1-heptenyl)-2,4-dihydroxy-6-methylbenzaldehyde] | 96 to 97 °C |  |  |  | 
12 | CCCCCCC/C=C/c1c(O)c(Cl)c(C)c(C=O)c1O [200-9, 5-chloro-2,4-dihydroxy-6-methyl-3-(1-nonenyl)benzaldehyde] | 79.5 to 80.5 °C | 0.4 nM | 0.8 µM | 100 µM | 
13 | CCCCCCCC/C=C/c1c(O)c(Cl)c(C)c(C=O)c1O [200-10, 5-Chloro-3-(1-decenyl)-2,4-dihydroxy-6-methylbenzaldehyde] | 83 to 84 °C | 0.45 nM | 0.8 µM | 100 µM | 
14 | CCCCCCCCCC/C=C/c1c(O)c(Cl)c(C)c(C=O)c1O [200-12, 5-Chloro-3-(1-dodecenyl)-2,4-dihydroxy-6-methylbenzaldehyde] |  | 0.5 nM | 1.5 µM | 100 µM | 
15 | CCCCCCCCCCCC(O)c1c(O)ccc(C=O)c1O (centres unmarked) [201-12, 2,4-Dihydroxy-3-(1-hydroxydodecyl)benzaldehyde] |  | 300 nM |  |  | 
16 | CCCCCCCCCCCC(O)c1c(O)c(Cl)cc(C=O)c1O (centres unmarked) [202-12, 5-Chloro-2,4-dihydroxy-3-(1-hydroxydodecyl)benzaldehyde] | 78 to 79 °C | 1.5 nM |  |  | 
17 | CCCCCCCCCC/C=C/c1c(O)c(Cl)cc(C=O)c1O [203-12, 5-Chloro-3-(1-dodecenyl)-2,4-dihydroxybenzaldehyde] | 84 to 85 °C | 0.5 nM |  |  | 
18 | CCCCCCCCCc1c(O)c(Cl)c(C)c(C=O)c1O [215-9, 3-Chloro-4,6-dihydroxy-2-methyl-5-nonylbenzaldehyde] | 89 to 90 °C | 0.21 nM |  |  | 
19 | C/C(=C\Cc1c(O)c(Cl)c(C)c(C=O)c1O)CC/C=C(\C)[C@@H]1CC(=O)C(C)(C)O1 [AF, ascofuranone, reference compound] |  |  | 0.2 µM |  | minimal effective concentration (Trypanosma brucei brucei; 24 h): 200 µM; inhibition of the glycerol-3-phosphate oxidation system of trypanosome [2]: very low concentration of the order of nM
20 | CCCC[C@H]1C(=O)O[C@H](C)[C@H](NC(=O)c2cccc(NC=O)c2O)C(=O)O[C@@H](C)[C@@H]1OC(=O)CC(C)C [antimycin A3] |  |  |  |  | absolute amounts of 50% inhibition [3]: 48,600 pmol/mg protein
21 | CCCCCCCC/C=C/c1c(O)ccc(C=O)c1O [compound 197, 3-(1-Decenyl)-2,4-dihydroxybenzaldehyde] |  | 120 nM | 50 µM | 50 µM | 
22 | CCCCCCCCCC/C=C/c1c(O)cc(C)c(C=O)c1O [compound 198, 3-(1-Dodecenyl)-2,4-dihydroxy-6-methylbenzaldehyde] | 103 to 105 °C | 16 nM | 50 µM | 50 µM | 
23 | COc1c(Cl)c(C)c(C=O)c(O)c1C/C=C(\C)CC/C=C(\C)[C@@H]1CC(=O)C(C)(C)O1 [compound 211, 3-Chloro-6-hydroxy-4-methoxy-2-methyl-5-[(E,E)-3-methyl-7-(tetrahydro-5,5-dimethyl-4-oxo-2-furanyl)-2,6-octadienyl]benzaldehyde] |  | 4 nM |  |  | 
24 | C/C(=C\Cc1c(O)c(Cl)c(C)c(/C=N/O)c1O)CC/C=C(\C)[C@@H]1CC(=O)C(C)(C)O1 [compound 213, 5-[(E,E)-7-(3-Chloro-2,6-dihydroxy-5-hydroxyiminomethyl-4-methylphenyl)-1,5-dimethyl-1,5-heptadienyl]-4,5-dihydro-2,2-dimethyl-3(2H)-furanone] | 102 to 103 °C | 28 nM |  |  | 
25 | CC(C)=CCCC(C)CC(O)c1c(O)c(Cl)c(C)c(C=O)c1O (centres unmarked) [compound 220, 3-chloro-4,6-dihydroxy-5-(1-hydroxy-3,7-dimethyl-6-octenyl)-2-methylbenzaldehyde] |  | 20 nM |  |  | 
26 | CO/C(=C/C(N)=O)[C@H](C)[C@H](/C=C/c1csc(-c2csc([C@@H](C)/C=C/C=C/C(C)C)n2)n1)OC [myxothiazol] |  |  |  |  | absolute amounts of 50% inhibition [3]: 21,500 pmol/mg protein
27 | C/C=C(C)/C=C/C=C/[C@H](OC)[C@@H](C)[C@@H](OC)[C@@H](C)CCc1oc2c(O)c(OC)cc(OC)c2c(=O)c1C [stigmatellin] |  |  |  |  | absolute amounts of 50% inhibition [3]: 18,600 pmol/mg protein
